According to PMC4666608, “Metabolic Profiling of Chicken Embryos Exposed to Perfluorooctanoic Acid (PFOA) and Agonists to Peroxisome Proliferator-Activated Receptors” (PLoS ONE, 2015):
Marks after values point to notes of the source that are not given here.

Tested on: chicken embryos
Experiment: Metabolic profiling of blood plasma (GC-MS, LC-MS, OPLS-DA)
Format: in vivo, Gallus gallus domesticus
Procedure: Controls were injected with 20 μL vehicle only (DMSO).
Plasma was collected and stored at -70°C.
Metabolites in allantoic fluid and blood plasma were analyzed using gas chromatography-mass spectrometry (GC-MS) and liquid chromatography-mass spectrometry (LC-MS) as described in S1 Methods. Prior to GC-MS and LC-MS analysis, allantoic fluid (100 μL) and blood plasma (50 μL) were extracted. To each sample, 900 μL (allantoic fluid) or 450 μL (blood plasma) of extraction buffer (90/10 v/v methanol:water) including all internal standards were added. Standards for GC-MS were proline, succinic acid, glutamic acid, salicylic acid, alpha-ketoglutarate, putrescine, myristic acid, hexadecanoic acid, cholesterol, and sucrose. Standards for LC-MS were Val-Tyr-Val, Leu-enkephalin, sulfadimethoxine and reserpine. Samples were homogenized by shaking in a bead mill at a frequency of 30 Hz for 3 minutes and proteins were precipitated at +4°C on ice. The samples were centrifuged at +4°C, 14000 rpm, for 10 min. Then, 200 μL supernatant was transferred to a GC microvial and 200 μL was transferred to an LC microvial, and solvents were evaporated. Samples from the four replicate experiments were analyzed using in chronological order and within each replicate experiment the run order of the individual samples was randomized.
Multivariate statistical analyses of metabolite profiles were performed using the software package SIMCA-P version 13.0 (Umetrics, Umeå, Sweden). Data was centered and scaled to variance 1 (UV scaling) prior to modelling. To reduce unintended systematic variation caused by sample processing and instrument drift, GC-MS and LC-MS metabolite amounts (expressed as the area under the chromatographic peak) were normalized by Orthogonal Partial Least Squares analysis (O2PLS) prior to multivariate data analysis. O2PLS finds common (predictive) and unique (orthogonal) variation in two data matrices. If applied to find the common variation between the data matrix containing the measured metabolite concentrations and a matrix containing only the internal standards, the only common (predictive) variation expected is due to the unintended systematic variation. By deleting the contribution of the predictive latent variables, that variation can be removed from the data. Models obtained after this normalization contain in general less latent variables, and this simplification helps when deciding on the number of latent variables to be used. Following normalization, GC-MS and LC-MS data were analyzed together. Initially, a global Principal Component Analysis (PCA) was performed to get an overview of groups and trends and to identify outliers. Projections to latent structures by means of Orthogonal Partial Least Squares Discriminant Analysis (OPLS-DA) was used to model the relationship between the X-matrix (metabolite concentrations) and the Y matrix (class, i.e. exposure group or sex), and to find x-variables that were related to class belonging. OPLS-DA is a supervised prediction and regression method that rotates the projection plane to find the maximum covariance between the data and the class assignment. All groups were first analyzed together in a 5-class OPLS-DA and then each exposure group was analyzed against the control group in a 2-class OPLS-DA. Sex differences were analyzed both using the whole data set and in each group separately using 2-class OPLS-DA, with females and males as the two classes. Only variables with 80% or more nonzero values were included in the statistical models. […] The validity of each model was also checked using CV-ANOVA (ANOVA of the cross-validated residuals). A significance level of p < 0.05 was used. For each model, R ^2 X, R ^2 Y and Q ^2 values were calculated, where R ^2 X is a measure of the fraction of x variation modeled in the extracted latent variables, R ^2 Y is a measure of the fraction of y variation modeled and Q ^2 is an estimate of the predictive ability of the model and is calculated by cross-validation. […]

SMILES: CC(C)(Sc1ccc(CCN(CCCCC2CCCCC2)C(=O)NC2CCCCC2)cc1)C(=O)O [GW7647, reference compound]
- Mean concentration relative to control, feature Win006_C03 (GC): 1.3***
- Mean concentration relative to control, feature Win011_C02 (Isoleucine) (GC): 1.2**
- Mean concentration relative to control, feature Win027_C13 (GC): 0.9
- Mean concentration relative to control, feature Win031_C03 (Citric acid) (GC): 0.8**
- Mean concentration relative to control, feature Win034_C08 (Tyrosine) (GC): 1.2***
- Mean concentration relative to control, feature Win034_C09 (Tyrosine) (GC): 1.3***
- Mean concentration relative to control, feature Win039_C07 (GC): 1.8***
- Mean concentration relative to control, feature Win043_C02 (Cystathionine) (GC): 1.6***
- Mean concentration relative to control, feature Win061_C01 (GC): 1.4*
- Mean concentration relative to control, feature Win066_C03 (GC): 1.3**
- Mean concentration relative to control, feature Win088_C02 (GC): 1.2**
- Mean concentration relative to control, feature 118.0284@2.480333 (C4H6O4) (LC): 0.9
- Mean concentration relative to control, feature 122.0486@0.675613 (LC): 0.7**
- Mean concentration relative to control, feature 126.0428@1.2278157 (Thymine) (LC): 1.2***
- Mean concentration relative to control, feature 146.0362@0.7772238 (LC): 1.3**
- Mean concentration relative to control, feature 159.0686@1.1608156 (LC): 1.6**
- Mean concentration relative to control, feature 164.0449@0.7694838 (LC): 1.2**
- Mean concentration relative to control, feature 202.1024@5.0303197 (C8H14N2O4) (LC): 1.4**
- Mean concentration relative to control, feature 203.1162@0.5130696 (LC): 0.8***
- Mean concentration relative to control, feature 213.2458@7.4887733 (LC): 1
- Mean concentration relative to control, feature 215.047@1.6260729 (C5H14NO6P) (LC): 0.8***
- Mean concentration relative to control, feature 226.0721@1.9460537 (LC): 1.1**
- Mean concentration relative to control, feature 231.0174@1.6241412 (LC): 0.7**
- Mean concentration relative to control, feature 233.1265@2.535991 (LC): 1.4**
- Mean concentration relative to control, feature 250.1317@2.1334834 (LC): 1.7**
- Mean concentration relative to control, feature 260.0508@0.69984084 (LC): 0.8
- Mean concentration relative to control, feature 276.0173@1.6283482 (LC): 0.7**
- Mean concentration relative to control, feature 278.0939@1.3354088 (LC): 0.8***
- Mean concentration relative to control, feature 293.0903@1.5739433 (LC): 1.2***
- Mean concentration relative to control, feature 307.2147@7.5065937 (C18H29NO3) (LC): 0.9
- Mean concentration relative to control, feature 310.178@7.5343466 (LC): 1
- Mean concentration relative to control, feature 339.3861@9.528681 (LC): 1.1
- Mean concentration relative to control, feature 342.2883@7.526812 (LC): 1.1
- Mean concentration relative to control, feature 348.0675@1.5761927 (LC): 1.1**
- Mean concentration relative to control, feature 355.9454@0.68034226 (LC): 0.9**
- Mean concentration relative to control, feature 362.1467@0.8461036 (LC): 1.2***
- Mean concentration relative to control, feature 366.1431@1.4228548 (LC): 1.1
- Mean concentration relative to control, feature 373.296@9.044806 (LC): 0.8***
- Mean concentration relative to control, feature 375.3108@8.995564 (LC): 0.8**
- Mean concentration relative to control, feature 389.2686@9.046645 (LC): 0.9**
- Mean concentration relative to control, feature 407.0999@1.585909 (LC): 1
- Mean concentration relative to control, feature 412.135@2.4779084 (C17H24N4O6S) (LC): 0.9
- Mean concentration relative to control, feature 444.3607@10.33052 (LC): 0.9
- Mean concentration relative to control, feature 471.9819@0.685074 (LC): 0.8*
- Mean concentration relative to control, feature 489.1508@8.562614 (LC): 0.7**
- Mean concentration relative to control, feature 509.1184@2.4798179 (LC): 1
- Mean concentration relative to control, feature 525.2855@8.361063 (LC): 1.4**
- Mean concentration relative to control, feature 545.2492@8.463657 (LC): 1.2*
- Mean concentration relative to control, feature 558.4095@9.459733 (LC): 1.3
- Mean concentration relative to control, feature 565.1902@0.7699907 (LC): 1.2***
- Mean concentration relative to control, feature 577.2747@9.25652 (LC): 1.2**
- Mean concentration relative to control, feature 581.1643@0.77029324 (LC): 1.3***
- Mean concentration relative to control, feature 634.2403@1.9467853 (LC): 1.5*
- Mean concentration relative to control, feature 644.1614@0.7647065 (LC): 1.2**
- Mean concentration relative to control, feature 659.5483@11.4915495 (LC): 0.7***
- Mean concentration relative to control, feature 698.2598@1.3599721 (LC): 1.1
- Mean concentration relative to control, feature 700.5514@10.765638 (LC): 1.4*
- Mean concentration relative to control, feature 755.5465@10.73882 (LC): 0.9
- Mean concentration relative to control, feature 827.5078@8.831237 (LC): 1.5*
- Mean concentration relative to control, feature 875.4661@10.5661745 (LC): 1.3***
- Mean concentration relative to control, feature 1262.4865@1.947075 (LC): 1.1**
- Mean concentration relative to control, feature 1316.4163@1.9465046 (LC): 1.1**
- Mean concentration relative to control, feature 1591.051@5.0189176 (LC): 0.8**
- Mean concentration relative to control, feature 1591.388@5.0202384 (LC): 0.8***
- Mean concentration relative to control, feature 1591.7203@5.018071 (LC): 0.8**
